Source: patent US20260069588A1, “VEPDEGESTRANT FOR USE IN TREATING CANCER” (Arvinas Operation, Inc., priority 2022, published 2026)
Like-named read-outs stand apart in the source and are kept apart here.

Legend:
[1] = target: GSPT1 (Homo sapiens, UniProt P15170); test: Cereblon neomorphic substrate degradation, GSPT1; assay type: cell-based; conditions: in vitro
Excerpt: (§1) These drugs bind to cereblon and promote the degradation of novel (neomorphic) substrates.

[2] = target: Ikaros (Homo sapiens, UniProt Q13422); test: Cereblon neomorphic substrate degradation, Ikaros; assay type: cell-based; conditions: in vitro
Sequence of Ikaros (Q96SW2 whole entry partner, species assumed): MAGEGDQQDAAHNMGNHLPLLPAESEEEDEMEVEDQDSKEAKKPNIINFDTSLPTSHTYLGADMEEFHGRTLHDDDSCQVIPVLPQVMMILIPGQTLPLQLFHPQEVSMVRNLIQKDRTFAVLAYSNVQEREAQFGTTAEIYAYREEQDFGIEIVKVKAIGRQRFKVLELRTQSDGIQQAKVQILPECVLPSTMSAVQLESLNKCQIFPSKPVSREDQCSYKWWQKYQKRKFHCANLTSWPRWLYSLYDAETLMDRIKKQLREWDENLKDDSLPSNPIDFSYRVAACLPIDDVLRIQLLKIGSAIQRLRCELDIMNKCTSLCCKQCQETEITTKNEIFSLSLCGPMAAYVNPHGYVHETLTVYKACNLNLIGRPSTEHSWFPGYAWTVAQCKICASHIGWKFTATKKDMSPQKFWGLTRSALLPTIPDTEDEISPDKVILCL
Sequence of Ikaros (Q16531 whole entry partner, species assumed): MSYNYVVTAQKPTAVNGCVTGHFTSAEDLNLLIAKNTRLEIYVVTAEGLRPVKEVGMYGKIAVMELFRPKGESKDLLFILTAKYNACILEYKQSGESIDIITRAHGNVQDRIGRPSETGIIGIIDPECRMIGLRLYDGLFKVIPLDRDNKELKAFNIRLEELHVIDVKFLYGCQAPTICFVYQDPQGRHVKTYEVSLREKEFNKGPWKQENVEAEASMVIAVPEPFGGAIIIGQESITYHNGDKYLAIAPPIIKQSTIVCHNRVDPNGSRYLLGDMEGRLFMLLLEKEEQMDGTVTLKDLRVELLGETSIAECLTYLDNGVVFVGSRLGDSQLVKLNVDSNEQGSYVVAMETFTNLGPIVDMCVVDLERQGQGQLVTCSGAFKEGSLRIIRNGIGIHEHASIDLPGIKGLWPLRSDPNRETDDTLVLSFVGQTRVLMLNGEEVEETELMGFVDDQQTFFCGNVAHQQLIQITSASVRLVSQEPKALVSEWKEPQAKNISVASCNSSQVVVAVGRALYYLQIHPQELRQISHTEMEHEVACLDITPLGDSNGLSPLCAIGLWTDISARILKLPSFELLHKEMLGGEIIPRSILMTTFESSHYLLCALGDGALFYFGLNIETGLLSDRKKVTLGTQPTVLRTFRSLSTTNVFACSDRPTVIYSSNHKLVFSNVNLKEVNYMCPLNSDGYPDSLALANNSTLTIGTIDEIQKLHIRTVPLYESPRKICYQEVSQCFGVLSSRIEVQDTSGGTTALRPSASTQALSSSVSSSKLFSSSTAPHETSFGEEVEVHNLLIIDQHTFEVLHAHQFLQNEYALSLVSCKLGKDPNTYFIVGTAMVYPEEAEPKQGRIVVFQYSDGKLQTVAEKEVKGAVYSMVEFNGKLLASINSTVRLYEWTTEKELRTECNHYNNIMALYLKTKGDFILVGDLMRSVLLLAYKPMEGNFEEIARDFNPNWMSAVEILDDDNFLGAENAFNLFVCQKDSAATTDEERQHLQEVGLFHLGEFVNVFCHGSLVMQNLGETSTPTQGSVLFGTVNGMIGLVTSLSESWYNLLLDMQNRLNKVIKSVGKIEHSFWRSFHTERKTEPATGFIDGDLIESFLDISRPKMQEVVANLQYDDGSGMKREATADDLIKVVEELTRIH
Sequence of Ikaros (Q13422 whole entry, species assumed): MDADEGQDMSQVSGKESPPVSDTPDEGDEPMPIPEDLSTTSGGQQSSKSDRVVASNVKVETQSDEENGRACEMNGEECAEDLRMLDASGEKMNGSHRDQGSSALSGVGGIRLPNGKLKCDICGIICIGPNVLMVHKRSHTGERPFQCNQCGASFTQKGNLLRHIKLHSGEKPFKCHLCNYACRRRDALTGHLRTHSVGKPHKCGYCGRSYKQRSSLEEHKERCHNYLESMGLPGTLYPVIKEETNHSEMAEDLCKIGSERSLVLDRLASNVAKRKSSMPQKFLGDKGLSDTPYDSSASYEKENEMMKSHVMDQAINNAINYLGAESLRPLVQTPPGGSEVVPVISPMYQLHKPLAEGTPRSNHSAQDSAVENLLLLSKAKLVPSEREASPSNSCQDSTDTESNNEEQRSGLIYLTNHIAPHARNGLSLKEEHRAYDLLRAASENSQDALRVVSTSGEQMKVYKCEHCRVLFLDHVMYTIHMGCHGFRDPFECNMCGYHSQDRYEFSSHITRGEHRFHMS
Excerpt: as §1

[3] = Clinical Pharmacology Study: adverse events in healthy volunteers
Description: The severity of adverse events was graded according to the National Cancer Institute Common Terminology Criteria for Adverse Events (NCI CTCAE) version 5.0.

[4] = 7-day oral dose range finding toxicity study in rats; assay type: in vivo; conditions: rat, up to 300 mg/kg/day, 7 days
Excerpt: Noteworthy findings were changes in the female reproductive organs, including in the ovaries (minimal to moderate increased size of tertiary follicles, retained corpora lutea, and minimal to moderate interstitial cell hypertrophy), uterus (atrophy) and vagina (mucosa atrophy).

[5] = Tissue distribution in rat; assay type: in vivo; conditions: for Kp at 3 days: 100 mg/kg/day PO 3 days
[6] = Plasma protein binding, human; assay type: in vitro ADME; conditions: read-out: free fraction
[7] = Interconversion (epimerization) Compound A/Compound B in animals; assay type: in vivo, mouse, rat, dog, and monkey; conditions: monkey
[8] = FIH Study Parts A and B combined: adverse events; assay type: in vivo, human
Excerpt: Preliminary safety data from Part B (monotherapy dose expansion) is consistent with what has been observed in Part A (monotherapy dose escalation).

[9] = Clinical Pharmacology Study: single 200 mg dose PK, all 3 cohorts; conditions: human, in vivo, oral
Description: The geometric mean T1/2 following a single 200 mg dose was approximately 40 hours under fed condition.

[10] = Phase 2 study of Compound A or anastrozole in early ER+/HER2− breast cancer: adverse events
Description: The study will also evaluate safety, tolerability, and clinical and pathological response after approximately 5.5 months of treatment.

[11] = TEAE, Treatment Related per title, Compound A 200 mg N = 23, Anastrozole 1 mg N = 13

Sequence of GSPT1 (Q96SW2 whole entry partner, species assumed): as the sequence (Q96SW2 whole entry partner, species assumed) above
Sequence of GSPT1 (Q16531 whole entry partner, species assumed): as the sequence (Q16531 whole entry partner, species assumed) above
Sequence of GSPT1 (P15170 whole entry, species assumed): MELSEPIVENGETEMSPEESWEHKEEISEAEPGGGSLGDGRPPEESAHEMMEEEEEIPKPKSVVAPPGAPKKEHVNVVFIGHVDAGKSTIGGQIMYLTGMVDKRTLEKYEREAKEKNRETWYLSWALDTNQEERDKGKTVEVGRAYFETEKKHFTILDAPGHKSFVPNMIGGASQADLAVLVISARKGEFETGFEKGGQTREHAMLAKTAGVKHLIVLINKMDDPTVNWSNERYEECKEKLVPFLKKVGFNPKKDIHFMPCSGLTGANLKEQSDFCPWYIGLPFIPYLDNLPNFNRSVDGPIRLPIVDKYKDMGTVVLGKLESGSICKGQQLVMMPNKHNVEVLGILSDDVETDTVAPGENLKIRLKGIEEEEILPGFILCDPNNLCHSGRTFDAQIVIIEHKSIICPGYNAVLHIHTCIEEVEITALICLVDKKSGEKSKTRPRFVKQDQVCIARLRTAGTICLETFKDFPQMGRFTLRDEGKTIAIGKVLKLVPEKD

## O=C1CC[C@H](N2Cc3cc(N4CCN(CC5CCN(c6ccc([C@@H]7c8ccc(O)cc8CC[C@@H]7c7ccccc7)cc6)CC5)CC4)ccc3C2=O)C(=O)N1 [Compound A, (S)-3-(5-(4-((1-(4-((1R,2S)-6-hydroxy-2-phenyl-1,2,3,4-tetrahydronaphthalen-1-yl)phenyl)piperidin-4-yl)methyl)piperazin-1-yl)-1-oxoisoindolin-2-yl)piperidine-2,6-dione]
[1]
  degradation of GSPT1: did not degrade
[2]
  degradation of Ikaros: did not degrade
[3]; 200 mg, healthy participants
  TRAEs of Grade 2 or higher: no TRAEs of Grade 2 or higher were reported
  tolerability: well-tolerated
[3]; Fast/Fed cohort
  Grade 1 TEAEs: 21.4%
  Grade 2 TEAEs: 14.3%
  Grade 3 or higher TEAEs: No participants reported Grade 3 or higher TEAEs
[3]; Fast/Fed cohort n=14
  TEAE ligament sprain: 14.3%
  TRAE pollakiuria: 7.1%
[3]; PPI cohort
  Grade 1 TEAEs: 47.1%
  Grade 2 TEAEs: 5.9%
  Grade 3 or higher TEAEs: No participants reported Grade 3 or higher TEAEs
  TRAEs nausea, headache, pruritus, each: 5.9%
[3]; PPI cohort n=17
  TEAE Headache: 29.4%
  participants with at least 1 TRAE: 11.8%
[3]; PPI cohort, due to COVID
  participants with TEAE leading to discontinuation: One
[3]; all cohorts
  SAEs, SARs, deaths: No SAEs, SARs or deaths were reported
  participants with at least 1 TRAE: 3 of 47 participants
[3]; all cohorts, 200 mg
  participants with TEAEs: 15 of 47 participants
[3]; rBA cohort n=16
  TRAEs: No participants reported a TRAE
  participants with a TEAE (dizziness, Grade 1): 6.3%
[4]
  tolerability: well tolerated
[5]
  tissue accumulation upon repeat-dose: no signs of tissue accumulation
[5]; brain, read-out: tissue plasma ratio, brain
  Kp at 3 days: ≤ 0.1
[5]; in vivo
  blood brain barrier crossing: does not readily cross the blood brain barrier
[5]; lung, read-out: tissue plasma ratio, lung
  Kp at 3 days: 5.6 to 13.9
[6]
  fraction unbound at 1 μM: 0.124
[7]
  extent of epimerization: negligible
[8]; 143 of 154, as of 6 Jun 2023
  patients with TEAEs: 92.9%
[8]; Part A + B, N=154
  Any treatment-emergent AE, Any Grade: 143 (92.9) n (%)
  Any treatment-emergent AE, Grade 3+: 40 (26.0) n (%)
  Any treatment-related AE, Any Grade: 114 (74.0) n (%)
  Any treatment-related AE, Grade 3+: 12 (7.8) n (%)
  TEAE Anemia, Any Grade: 16 (10.4) n (%)
  TEAE Anemia, Grade 3+: 2 (1.3) n (%)
  TEAE Arthralgia, Any Grade: 34 (22.1) n (%)
  TEAE Arthralgia, Grade 3+: 2 (1.3) n (%)
  TEAE Aspartate aminotransferase increased, Any Grade: 21 (13.6) n (%)
  TEAE Aspartate aminotransferase increased, Grade 3+: 3 (1.9) n (%)
  TEAE Back pain, Any Grade: 21 (13.6) n (%)
  TEAE Back pain, Grade 3+: 2 (1.3) n (%)
  TEAE Constipation, Any Grade: 41 (26.6) n (%)
  TEAE Constipation, Grade 3+: 0 n (%)
  TEAE Decreased appetite, Any Grade: 24 (15.6) n (%)
  TEAE Decreased appetite, Grade 3+: 1 (0.6) n (%)
  TEAE Diarrhea, Any Grade: 19 (12.3) n (%)
  TEAE Diarrhea, Grade 3+: 0 n (%)
  TEAE Fatigue, Any Grade: 62 (40.3) n (%)
  TEAE Fatigue, Grade 3+: 2 (1.3) n (%)
  TEAE Headache, Any Grade: 25 (16.2) n (%)
  TEAE Headache, Grade 3+: 1 (0.6) n (%)
  TEAE Hot flush, Any Grade: 24 (15.6) n (%)
  TEAE Hot flush, Grade 3+: 0 n (%)
  TEAE Hyperglycemia, Any Grade: 16 (10.4) n (%)
  TEAE Hyperglycemia, Grade 3+: 0 n (%)
  TEAE Nausea, Any Grade: 46 (29.9) n (%)
  TEAE Nausea, Grade 3+: 1 (0.6) n (%)
  TEAE Pain in extremity, Any Grade: 17 (11.0) n (%)
  TEAE Pain in extremity, Grade 3+: 0 n (%)
  TEAE Vomiting, Any Grade: 20 (13.0) n (%)
  TEAE Vomiting, Grade 3+: 0 n (%)
  TRAE Arthralgia, Any Grade: 22 (14.3) n (%)
  TRAE Arthralgia, Grade 3+: 0 n (%)
  TRAE Constipation, Any Grade: 16 (10.4) n (%)
  TRAE Constipation, Grade 3+: 0 n (%)
  TRAE Fatigue, Any Grade: 48 (31.2) n (%)
  TRAE Fatigue, Grade 3+: 1 (0.6) n (%)
  TRAE Hot flush, Any Grade: 20 (13.0) n (%)
  TRAE Hot flush, Grade 3+: 0 n (%)
  TRAE Nausea, Any Grade: 36 (23.4) n (%)
  TRAE Nausea, Grade 3+: 1 (0.6) n (%)
[8]; Parts A and B, N=154
  TEAE Arthralgia: 22.1%
  TEAE Aspartate aminotransferase increased: 13.6%
  TEAE Back pain: 13.6%
  TEAE Constipation: 26.6%
  TEAE Decreased appetite: 15.6%
  TEAE Diarrhea: 12.3%
  TEAE Fatigue: 40.3%
  TEAE Headache: 16.2%
  TEAE Nausea: 29.9%
  TEAE Pain in extremity: 11.0%
  TEAE Vomiting: 13.0%
  TEAE anemia: 10.4%
  TEAE hot flush: 15.6%
  TEAE hyperglycaemia: 10.4%
  TRAE Arthralgia: 14.3%
  TRAE Constipation: 10.4%
  TRAE Fatigue: 31.2%
  TRAE Nausea: 23.4%
  TRAE hot flush: 13.0%
[9]; fed, read-out: geometric mean T1/2 (converted)
  half-life: ~40 h
[9]; read-out: median Tmax across cohorts
  Tmax: 6 to 8 h
[10]; 200 mg, seven participants, 6 Jun 2023
  participants on Compound A with a treatment-related AE: 19.4%
[10]; [11]
  Anemia: 0 n (%)
  Arthralgia: 0 n (%)
  Asphyxia: 1 (4.3) n (%)
  Asthenia: 2 (8.7) n (%)
  Blood and lymphatic system disorders: 1 (4.3) n (%)
  Blood uric acid increased: 1 (4.3) n (%)
  Breast pain: 1 (4.3) n (%)
  Cardiac disorders: 1 (4.3) n (%)
  Constipation: 2 (8.7) n (%)
  Diarrhea: 1 (4.3) n (%)
  Dyspepsia: 0 n (%)
  Fatigue: 1 (4.3) n (%)
  Gastrointestinal disorders: 4 (17.4) n (%)
  General disorders and administration site conditions: 4 (17.4) n (%)
  Hematocrit decreased: 0 n (%)
  Heparin-induced thrombocytopenia: 1 (4.3) n (%)
  Hepatobiliary disorders: 3 (13.0) n (%)
  Hot flush: 3 (13.0) n (%)
  Hyperbilirubinemia: 2 (8.7) n (%)
  Hypercalcemia: 1 (4.3) n (%)
  Hyperglycemia: 2 (8.7) n (%)
  Hypernatremia: 1 (4.3) n (%)
  Hypertransaminasemia: 1 (4.3) n (%)
  Hypokalemia: 1 (4.3) n (%)
  Hyponatremia: 1 (4.3) n (%)
  Injury, poisoning and procedural complications: 1 (4.3) n (%)
  Insomnia: 1 (4.3) n (%)
  Investigations: 1 (4.3) n (%)
  Lymphopenia: 0 n (%)
  Metabolism and nutrition disorders: 2 (8.7) n (%)
  Musculoskeletal and connective tissue disorders: 0 n (%)
  Myalgia: 0 n (%)
  Nervous system disorders: 2 (8.7) n (%)
  Odynophagia: 1 (4.3) n (%)
  Procedural pain: 1 (4.3) n (%)
  Pruritus: 1 (4.3) n (%)
  Psychiatric disorders: 2 (8.7) n (%)
  Pyrexia: 1 (4.3) n (%)
  Reproductive system and breast disorders: 1 (4.3) n (%)
  Respiratory, thoracic and mediastinal disorders: 1 (4.3) n (%)
  Sinus bradycardia: 1 (4.3) n (%)
  Skin and subcutaneous tissue disorders: 1 (4.3) n (%)
  Somnolence: 2 (8.7) n (%)
  Stomatitis: 1 (4.3) n (%)
  Tension: 1 (4.3) n (%)
  Vascular disorders: 3 (13.0) n (%)
  With Any Adverse Event: 11 (47.8) n (%)
